For this experiment, the target named is T1, CCR2 (Homo sapiens, UniProt P41597).
T1 construct: expressed in transfected cells; geneticin and hygromycin selection
In words: Calcium activity assay on FLIPR Tetra in HEK-Gqi5 cells stably expressing CCR2. The format is cell-based. Conditions: for Emax: read-out: CCR2 ANTAGONISM Rel. Eff. (%). As for the experimental part:
HEK-Gqi5 cells stably expressing CCR2 were cultured in DMEM high glucose, 10% FBS, 1% PSA, 400 μg/ml geneticin and 50 μg/ml hygromycin. Appropriate positive control chemokines (MCP-1, MIP1A or RANTES) was used as the positive control agonist for screening compound-induced calcium activity assayed on the FLIPR^Tetra. The drug plates were prepared in 384-well microplates using the EP3 and the MultiPROBE robotic liquid handling systems. Compounds were synthesized and tested for CCR2 activity.

SMILES strings stand for the structures. Some results are limits rather than exact numbers.

Consider ten molecules from patent US20150152080A1, “BENZOTHIOPHENE SULFONAMIDES DERIVATIVES AS CHEMOKINE RECEPTOR MODULATORS” (Allergan, Inc., priority 2013, published 2015).

T1 sequence (P41597 whole entry, species assumed): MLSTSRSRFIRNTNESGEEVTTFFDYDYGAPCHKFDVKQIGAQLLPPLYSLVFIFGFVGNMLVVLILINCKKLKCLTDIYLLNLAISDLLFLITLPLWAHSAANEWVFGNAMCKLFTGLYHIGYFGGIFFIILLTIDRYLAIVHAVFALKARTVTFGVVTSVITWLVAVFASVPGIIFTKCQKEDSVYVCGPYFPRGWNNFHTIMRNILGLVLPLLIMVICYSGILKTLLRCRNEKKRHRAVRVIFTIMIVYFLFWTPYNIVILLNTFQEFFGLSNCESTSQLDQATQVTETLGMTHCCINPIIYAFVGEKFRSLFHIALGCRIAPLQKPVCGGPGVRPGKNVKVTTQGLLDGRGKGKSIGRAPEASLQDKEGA

As to `COC(=O)c1ccccc1CSc1ccc(Cl)cc1NS(=O)(=O)c1cc2ccccc2s1` [Compound 1], the IC50 was 198 nM and the Emax was found to be 86%. On the same counts, the results for `O=C(O)c1ccccc1CSc1ccc(Cl)cc1NS(=O)(=O)c1cc2ccccc2s1` [Compound 2, 2-[({2-[(1-Benzothiophen-2-ylsulfonyl)amino]-4-chlorophenyl}sulfanyl)methyl]benzoic acid] are 4 nM and 100%.

As for `Cc1ccc(SCc2ccccc2C(=O)O)c(NS(=O)(=O)c2cc3ccccc3s2)c1` [Compound 4, 2-[({2-[(1-Benzothiophen-2-ylsulfonyl)amino]-4-methylphenyl}sulfanyl)methyl]benzoic acid], the Emax worked out at 99%.

As for `Nc1cccc(CS(=O)(=O)c2ccc(Cl)cc2NS(=O)(=O)c2cc3ccccc3s2)c1` [Compound 7, N-{2-[(3-Aminobenzyl)sulfonyl]-5-chlorophenyl}-1-benzothiophene-2-sulfonamide], the IC50 was found to be 77 nM and the Emax was 98%. On the same counts, the results for `Cc1ccc(NS(=O)(=O)c2cc3ccccc3s2)c(SCc2ccccc2C(=O)O)c1` [Compound 9, 2-[({2-[(1-Benzothiophen-2-ylsulfonyl)amino]-5-methylphenyl}sulfanyl)methyl]benzoic acid] are 114 nM and 88%. `O=S(=O)(Nc1cccnc1SCc1ccccc1)c1cc2ccccc2s1` [Compound 10, N-[2-(Benzylsulfanyl)pyridin-3-yl]-1-benzothiophene-2-sulfonamide]: the IC50 came out at 2250 nM and the Emax came out at 44%. On the same counts, the results for `O=S(=O)(Cc1ccccc1)c1ncccc1NS(=O)(=O)c1cc2ccccc2s1` [Compound 11, N-[2-(Benzylsulfonyl)pyridin-3-yl]-1-benzothiophene-2-sulfonamide] are 85 nM and 93%.

`O=S(=O)(Nc1cccnc1[S+]([O-])Cc1ccccc1)c1cc2ccccc2s1` (stereo not shown) [Compound 12, N-[2-(Benzylsulfinyl)pyridin-3-yl]-1-benzothiophene-2-sulfonamide]: the IC50 amounted to 122 nM and the Emax worked out at 72%.

`COC(=O)c1ccccc1CSc1ccc(F)cc1NS(=O)(=O)c1cc2ccccc2s1` [Compound 13, methyl 2-[({2-[(1-benzothiophen-2-ylsulfonyl)amino]-4-fluorophenyl}sulfanyl)methyl]benzoate]: the IC50 was 268 nM and the Emax was 68%. For `O=C(O)c1ccccc1CSc1ccc(F)cc1NS(=O)(=O)c1cc2ccccc2s1` [Compound 14, 2-[({2-[(1-benzothiophen-2-ylsulfonyl)amino]-4-fluorophenyl}sulfanyl)methyl]benzoic acid] the same measures were below 10 nM and 96%.

In general, IC50 refers to the concentration needed to halve the response being measured.
